Earlier results, collected in patent publication US7563779B2, “L-ergothioneine, milk thistle, and S-adenosylmethionine for the prevention, treatment and repair of liver damage” (Nutramax Laboratories, priority 1998, dated 2009).

Columns and labels:
[1] = system: lipid peroxide formation in mouse liver homogenate; conditions: FIG. 5
[2] = system: lipid peroxidation in liver tissue; conditions: exogenous L-ergothioneine, liver tissue of rats
[3] = system: liver lipid accumulation; conditions: rats chronically intoxicated with ethanol
[4] = system: liver nodules, pre-neoplastic lesions and hepatocellular carcinomas; conditions: administration of SAMe

Row | Compound | LPO formation [1] | decomposition of existing LPO [1] | lipid peroxidation by toxic compounds [2] | lipid accumulation [3] | amount of early reversible nodules [4] | development of late pre-neoplastic lesions and hepatocellular carcinomas [4]
1 | C[N+](C)(C)[C@@H](Cc1c[nH]c(=S)[nH]1)C(=O)[O-] [L-ergothioneine] | inhibited LPO formation | enhanced the decomposition of existing LPO | prevent lipid peroxidation |  |  | 
2 | C[S+](CC[C@H](N)C(=O)O)C[C@H]1O[C@@H](n2cnc3c(N)ncnc32)[C@H](O)[C@@H]1O (stereo partly drawn) [SAMe, S-adenosylmethionine] |  |  |  | decrease lipid accumulation | fall in the amount of early reversible nodules | prevention of the development of late pre-neoplastic lesions and hepatocellular carcinomas
